Test results reported in US20210244637A1, “DEUTERATED POLYUNSATURATED FATTY ACIDS OR ESTERS THEREOF FOR COSMETIC APPLICATIONS” (Retrotope, Inc., priority 2020, published 2021).

System: 2-nonenal
Assay: Reduction in skin odor: 2-nonenal in urine of mice fed D2-LA ethyl ester
Format: in vivo
Conditions: BALB/c mice; feed supplemented daily, no more than about 10% of PUFAs ingested; after 4 weeks of dosing; urine collected over 2 days; versus LA ethyl ester cohort
Method: Mice are known to generate skin odor and the causative agent is 2-nonenal. This example explores the contribution of lipid chain auto-oxidation to the generation of such skin odor. Specifically, two cohorts of BALB/c mice are tested. The feed of the first cohort is supplemented daily with D2-LA ethyl ester in an amount such that D2-LA ethyl ester constitutes no more than about 10% of the PUFAs ingested. The feed provided to the other cohort is supplemented with LA ethyl ester in otherwise identical amounts. After 4 weeks of dosing, the urine from each cohort is collected over a 2-day period and then analyzed to assess differences in the amount of 2-nonenal. Alternatively, skin samples can be evaluated for sebum exudates such as by swabs for chemical components.

[2H]C([2H])(/C=C\CCCCC)/C=C\CCCCCCCC(=O)OCC [D2-linoleic acid ethyl ester]
amount of 2-nonenal: significant reduction
